Read-outs that look alike come from different tables or passages of the source.
Target: T1, BTK (Homo sapiens, UniProt Q06187)
T1 construct: host or cells: NAMALWA
Experiment: BTK degradation in NAMALWA cells, immunoblot
Format: cell-based

T1 sequence (Q06187 whole entry): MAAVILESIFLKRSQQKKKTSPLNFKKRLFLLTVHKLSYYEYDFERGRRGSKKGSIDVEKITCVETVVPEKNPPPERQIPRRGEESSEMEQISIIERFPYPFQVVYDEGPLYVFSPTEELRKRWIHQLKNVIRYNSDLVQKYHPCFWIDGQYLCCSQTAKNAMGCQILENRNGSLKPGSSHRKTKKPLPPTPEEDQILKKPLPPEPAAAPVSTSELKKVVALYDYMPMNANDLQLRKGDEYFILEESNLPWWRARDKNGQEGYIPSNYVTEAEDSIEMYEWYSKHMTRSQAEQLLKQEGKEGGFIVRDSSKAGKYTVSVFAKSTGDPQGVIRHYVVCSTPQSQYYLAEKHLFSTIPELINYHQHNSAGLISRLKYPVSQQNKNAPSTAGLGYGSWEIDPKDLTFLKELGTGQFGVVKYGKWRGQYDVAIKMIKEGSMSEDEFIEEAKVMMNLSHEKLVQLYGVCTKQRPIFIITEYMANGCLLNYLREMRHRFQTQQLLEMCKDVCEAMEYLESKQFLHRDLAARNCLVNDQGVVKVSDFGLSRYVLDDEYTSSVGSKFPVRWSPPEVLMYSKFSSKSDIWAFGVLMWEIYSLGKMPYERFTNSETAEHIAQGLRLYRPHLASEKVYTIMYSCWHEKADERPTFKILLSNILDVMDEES

Row | ability to degrade BTK (NAMALWA cells) | Structure (SMILES) | Dmax (NAMALWA cells, read-out: Dmax) | DC50 (Table 5, NAMALWA cells) | Max (Table 5, at 2.5 μM) | DC50 (Table 6, in NAMALWA cells line) | Dmax (Table 6, in NAMALWA cells line)
1 |  | Cc1ncsc1-c1ccc(CNC(=O)[C@@H]2C[C@@H](O)CN2C(=O)[C@@H](NC(=O)COCCOCCN2CCC(n3nc(-c4ccc(Oc5ccccc5)cc4)c4c(N)ncnc43)CC2)C(C)(C)C)cc1 [Compound 129, (2S,4R)-1-((S)-2-(2-(2-(2-(4-(4-amino-3-(4-phenoxyphenyl)-1H-pyrazolo[3,4-d]pyrimidin-1-yl)piperidin-1-yl)ethoxy)ethoxy)acetamido)-3,3-dimethylbutanoyl)-4-hydroxy-N-(4-(4-methylthiazol-5-yl)benzyl)pyrrolidine-2-carboxamide] | < 50% | > 1000 nM | 49% | > 1000 nM | <50%
2 | inability to degrade BTK | Nc1ncnc2c1c(-c1ccc(Oc3ccccc3)cc1)nn2C1CCN(CCOCC(=O)Nc2cccc3c2C(=O)N(C2CCC(=O)NC2=O)C3=O)CC1 (stereo not drawn) [Compound 100, 2-(2-(4-(4-amino-3-(4-phenoxyphenyl)-1H-pyrazolo[3,4-d]pyrimidin-1-yl)piperidin-1-yl)ethoxy)-N-(2-(2,6-dioxopiperidin-3-yl)-1,3-dioxoisoindolin-4-yl)acetamide] |  |  |  |  | 
3 |  | Cc1ncsc1-c1ccc(CNC(=O)[C@@H]2C[C@@H](O)CN2C(=O)[C@H](C(C)C)N2Cc3ccccc3C2=O)c(OCCCOCCC(=O)N2CCC(n3nc(-c4ccc(Oc5ccccc5)cc4)c4c(N)ncnc43)CC2)c1 [Compound 128, (2S,4R)—N-(2-(3-(3-(4-(4-amino-3-(4-phenoxyphenyl)-1H-pyrazolo[3,4-d]pyrimidin-1-yl)piperidin-1-yl)-3-oxopropoxy)propoxy)-4-(4-methylthiazol-5-yl)benzyl)-4-hydroxy-1-((S)-3-methyl-2-(1-oxoisoindolin-2-yl)butanoyl)pyrrolidine-2-carboxamide] | < 50% |  |  | > 1000 nM | <50%
4 | inability to degrade BTK | Nc1ncnc2c1c(-c1ccc(Oc3ccccc3)cc1)nn2C1CCN(CCOCCOCC(=O)Nc2cccc3c2C(=O)N(C2CCC(=O)NC2=O)C3=O)CC1 (stereo not drawn) [Compound 101, 2-(2-(2-(4-(4-amino-3-(4-phenoxyphenyl)-1H-pyrazolo[3,4-d]pyrimidin-1-yl)piperidin-1-yl)ethoxy)ethoxy)-N-(2-(2,6-dioxopiperidin-3-yl)-1,3-dioxoisoindolin-4-yl)acetamide] |  |  |  |  | 
5 |  | Cc1ncsc1-c1ccc(CNC(=O)[C@@H]2C[C@@H](O)CN2C(=O)[C@H](C(C)C)N2Cc3ccccc3C2=O)c(OCCCCOCCCCN2CCC(n3nc(-c4ccc(Oc5ccccc5)cc4)c4c(N)ncnc43)CC2)c1 [Compound 127, (2S,4R)—N-(2-(4-(4-(4-(4-amino-3-(4-phenoxyphenyl)-1H-pyrazolo[3,4-d]pyrimidin-1-yl)piperidin-1-yl)butoxy)butoxy)-4-(4-methylthiazol-5-yl)benzyl)-4-hydroxy-1-((S)-3-methyl-2-(1-oxoisoindolin-2-yl)butanoyl)pyrrolidine-2-carboxamide] | < 50% | > 1000 nM |  | > 1000 nM | <50%

Row | Structure (SMILES) | ability to degrade BTK (NAMALWA cells) | Dmax (NAMALWA cells, read-out: Dmax) | DC50 (Table 5, NAMALWA cells) | Max (Table 5, at 2.5 μM) | DC50 (Table 6, in NAMALWA cells line) | Dmax (Table 6, in NAMALWA cells line)
6 | CN1C(=O)CCC(N2C(=O)c3ccc(NC(=O)COCCOCCN4CCC(n5nc(-c6ccc(Oc7ccccc7)cc6)c6c(N)ncnc65)CC4)cc3C2=O)C1=O (stereo not drawn) [Compound 130, 2-(2-(2-(4-(4-amino-3-(4-phenoxyphenyl)-1H-pyrazolo[3,4-d]pyrimidin-1-yl)piperidin-1-yl)ethoxy)ethoxy)-N-(2-(1-methyl-2,6-dioxopiperidin-3-yl)-1,3-dioxoisoindolin-5-yl)acetamide] | neither ibrutinib nor Compound 130 were able to induce degradation of BTK |  |  |  |  | 

Source: patent publication US20200121684A1, “MODULATORS OF BTK PROTEOLYSIS AND METHODS OF USE” (Yale University, priority 2018, published 2020)
